# Results: PMC10460880, “Cathepsin K‐Activated Probe for Fluoro‐Photoacoustic Imaging of Early Osteolytic Metastasis” (Advanced Science, 2023)
# Key:
# OCs = assay: Cell selectivity experiment, osteoclasts; assay type: cell-based; conditions: n = 3
# [1] = system: MDA-MB-231/Luc-induced osteolytic metastasis; assay: Real-time NIR fluorescence and PA imaging of osteolytic metastasis; assay type: in vivo, BALB/c nude mice; conditions: 2-CP 50 mM, 200 μL, 1 h before probe; n = 3
# Description: page 5: PS. RAW 264.7 cells and BMMs were maintained in an atmosphere of 5% CO2 and 95% humidified air at 37 °C. The medium was changed every day. Cell cytotoxicity assay. MDA-MB-231/Luc and RAW 264.7 cells were seeded in 96-well plates (5×10^3 cells per well) for 24 h and then incubated with CTSK-APPA or CTSK-APP (5, 10, 20, 50 μM) or saline for 24 h. The medium was removed and cells were incubated with CCK-8 (0.5 mg/mL) for another 1 h. The absorbance of the mixture at 450 nm was measured by using a microplate reader. Cell viability was expressed by the ratio of the absorbance of the cells incubated with the probes to that of the cells incubated with culture medium only. In vitro osteoclast differentiation. Bone marrow-derived macrophages were isolated from the femurs and tibias of 4-week-old C57BL/6J mice and cultured in a complete medium containing M-CSF (30 ng/mL) for 4 days. […] Fluorescence images were captured by using the IVIS Spectrum imaging system with excitation at 660 ± 10 nm and emission at 710 ± 10 nm. […] The bone marrow toxicity of CTSK-APPA and CTSK-APP was assessed by blood analyses in mice. […] The red blood count (RBC) and white blood count (WBC) were further measured. […] The supernatants containing excreted probes were quantified by using a UV-vis absorption spectrometer. […]
# [2] = system: CTSK-overexpressing OCs on calf bone slice; assay: In vitro bone resorption imaging assay; assay type: cell-based, C57BL/6J mice; conditions: 2-CP 50 mM, 37 °C, 30 min, then CTSK-APPA 5 μM, 2 h
# Description: PS. RAW 264.7 cells and BMMs were maintained in an atmosphere of 5% CO2 and 95% humidified air at 37 °C. The medium was changed every day.
# Cell cytotoxicity assay. MDA-MB-231/Luc and RAW 264.7 cells were seeded in 96-well plates (5×10^3 cells per well) for 24 h and then incubated with CTSK-APPA or CTSK-APP (5, 10, 20, 50 μM) or saline for 24 h. The medium was removed and cells were incubated with CCK-8 (0.5 mg/mL) for another 1 h. The absorbance of the mixture at 450 nm was measured by using a microplate reader. Cell viability was expressed by the ratio of the absorbance of the cells incubated with the probes to that of the cells incubated with culture medium only.
# In vitro osteoclast differentiation. Bone marrow-derived macrophages were isolated from the femurs and tibias of 4-week-old C57BL/6J mice and cultured in a complete medium containing M-CSF (30 ng/mL) for 4 days. BMMs were harvested to the 24-well plates (1×10^4 per well) and cultured in the complete medium containing M-CSF (30 ng/mL) and RANKL (100 ng/mL) for another 4 days. The osteoclasts were fixed and stained by using acid phosphatase and a leukocyte kit according to the manufacturer’s procedures.
# In vitro bone resorption imaging assay. […]
# Fluorescence images were captured by using the IVIS Spectrum imaging system with excitation […]
structure (smiles),measurement,setting,value
"N#Cc1ncccn1 [Probe 2-CP, 2-Cyanopyrimidine, reference compound]",effect of inhibitor on CTSK-APPA fluorescence in OCs,OCs,effectively reduced
same,effect of preinjected inhibitor on NIR fluorescence and PA signals of CTSK-APPA,[1],reduced to the CTSK‐APP levels
same,effect of inhibitor pre-treatment on CTSK-APPA fluorescence of bone-resorption slice,[2],remarkably suppressed NIR fluorescence
